Test [1] has as its target T1, human NTCP (Homo sapiens, UniProt Q14973).
T1 sequence (Q14973 1-349): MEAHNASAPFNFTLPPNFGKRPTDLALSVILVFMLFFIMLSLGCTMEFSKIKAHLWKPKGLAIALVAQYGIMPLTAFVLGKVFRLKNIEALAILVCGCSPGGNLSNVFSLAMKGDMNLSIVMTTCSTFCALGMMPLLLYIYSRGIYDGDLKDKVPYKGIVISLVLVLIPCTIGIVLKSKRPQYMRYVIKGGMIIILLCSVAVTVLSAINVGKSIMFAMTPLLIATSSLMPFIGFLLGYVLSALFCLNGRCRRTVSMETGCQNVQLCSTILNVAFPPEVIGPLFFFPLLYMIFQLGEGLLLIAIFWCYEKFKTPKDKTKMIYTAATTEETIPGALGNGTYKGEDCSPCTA
Nature of the test: Screening fluorescent competitive Myrcludex B-FITC binding assay (96-well, 10 µM drug).

For test [2], the target named is T1, human NTCP. Nature of the test: Screening taurocholate uptake assay (96-well, [14C]taurocholate, 10 µM drug).
Where [3] appears, read: Prestwick library screen, Myrcludex B-FITC binding, 10 µM drug.
Setting [4] is: Prestwick library screen, taurocholate uptake, 10 µM drug.
Setting [5] is: ranking score beside the functional and binding assay B-scores of the screen.
Where [6] appears, read: screen, 10 µM drug, Myrcludex B-FITC binding.
Where [7] appears, read: combined ranking from functional and binding screening assays.
The mark [8] stands for this setting: screen, 10 µM drug, taurocholate uptake.
Where [9] appears, read: Prestwick library screen, 10 µM drug, B-score of Myrcludex B-FITC binding.
Where [10] appears, read: Prestwick library screen, 10 µM drug, B-score of taurocholate uptake.
The mark [11] stands for this setting: combined ranking from functional and binding assay B-scores.

Where a name gives a salt, the structure may show the parent alone. Read-outs that look alike come from different tables or passages of the source.

On human NTCP [1] (setting [3]), `C[C@](N)(Cc1ccc(O)c(O)c1)C(=O)O` [Methyldopa (L,-)] returned a B-score binding assay of -0.046. In addition, the B-score functional assay on human NTCP [2] (setting [4]) was found to be 1.009. Besides, the Ranking score on human NTCP [2] (setting [5]) came out at 793.128.

Regarding `COC(=O)[C@H]1[C@H]2C[C@@H]3c4[nH]c5cc(OC)ccc5c4CCN3C[C@H]2C[C@@H](OC(=O)c2cc(OC)c(OC)c(OC)c2)[C@@H]1OC` [Reserpine], the B-score binding assay on human NTCP [1] (setting [3]) is 0.147. This compound also came in with a B-score functional assay on human NTCP [2] (setting [4]) of 0.519. Moreover, the Ranking score on human NTCP [2] (setting [5]) amounted to 842.122.

Regarding `O=P(O)(O)C(Cl)(Cl)P(=O)(O)O` [Clodronate], on human NTCP [1] (setting [6]), the B-score binding assay was -0.166. In addition, the Ranking score at human NTCP [2] (setting [7]) came out at 443.089. This compound registered a B-score functional assay on human NTCP [2] (setting [8]) of -0.468.

At human NTCP [1] (setting [6]), `CC(C)(C)NC(=O)[C@H]1CC[C@H]2[C@@H]3CC[C@H]4NC(=O)C=C[C@]4(C)[C@H]3CC[C@]12C` [Finasteride] gave a B-score binding assay of 0.768. Moreover, the Ranking score at human NTCP [2] (setting [7]) was determined as 406.586. The B-score functional assay at human NTCP [2] (setting [8]) is recorded as -1.623.

With `CN1C(=O)OC(C)(C)C1=O` [Trimethadione], on human NTCP [1] (setting [9]), the B-score binding assay was 0.001. The compound further came in with a B-score functional assay at human NTCP [2] (setting [10]) of 1.466. Besides, at human NTCP [2] (setting [11]), the Ranking score turned out to be 860.791.

The compound `CO[C@H]1C[C@H](O[C@H]2[C@H](C)[C@@H](O[C@@H]3O[C@H](C)C[C@H](N(C)C)[C@H]3OC(C)=O)[C@@H](C)C[C@@]3(CO3)C(=O)[C@H](C)[C@@H](OC(C)=O)[C@@H](C)[C@@H](C)OC(=O)[C@@H]2C)O[C@@H](C)[C@@H]1OC(C)=O` [Troleandomycin] had a B-score binding assay on human NTCP [1] (setting [3]) of 0.633. This compound came in with a B-score functional assay on human NTCP [2] (setting [4]) of -0.071. Also, on human NTCP [2] (setting [5]), the Ranking score was found to be 732.508.

Regarding `CNCCCC1c2ccccc2C=Cc2ccccc21` [Protriptyline hydrochloride], the B-score binding assay at human NTCP [1] (setting [6]) is -0.431. The Ranking score at human NTCP [2] (setting [7]) stood at 390.896. The compound further came in with a B-score functional assay at human NTCP [2] (setting [8]) of -0.483.

`CCN(CC)CCCC(C)Nc1ccnc2cc(Cl)ccc12` (stereo not drawn) [Chloroquine diphosphate] had a B-score binding assay on human NTCP [1] of 0.002. At human NTCP [2], this compound showed a B-score functional assay of 0.222 and a Ranking score of 726.833.

Turning to `CN1CCC(=C2c3ccccc3CC(=O)c3sccc32)CC1` [Ketotifen fumarate], the B-score binding assay at human NTCP [1] (setting [6]) is reported as -0.838. On human NTCP [2] (setting [7]), the Ranking score is 425.088. The same compound came in with a B-score functional assay on human NTCP [2] (setting [8]) of 0.006.

`Nc1nc(/C(=C/CC(=O)O)C(=O)N[C@@H]2C(=O)N3C(C(=O)O)=CCS[C@H]23)cs1` [Ceftibuten] registered a B-score binding assay on human NTCP [1] (setting [9]) of 1.253. For the same compound, the B-score functional assay on human NTCP [2] (setting [10]) was determined as 0.671. The Ranking score at human NTCP [2] (setting [11]) was 1026.13.

For `CC(=O)/N=c1/sc(S(N)(=O)=O)nn1C` [Methazolamide], the B-score binding assay at human NTCP [1] (setting [9]) is -0.041. Also, the B-score functional assay at human NTCP [2] (setting [10]) came out at 2.368. Besides, the Ranking score on human NTCP [2] (setting [11]) was 849.129.

Regarding `CC(C)(C)NCC(O)c1cc(O)cc(O)c1.CC(C)(C)NCC(O)c1cc(O)cc(O)c1.O=S(=O)(O)O` (stereo not drawn) [Terbutaline hemisulfate], the B-score binding assay at human NTCP [1] (setting [6]) is listed as -2.462. The Ranking score on human NTCP [2] (setting [7]) is reported as 291.443. Also, at human NTCP [2] (setting [8]), the B-score functional assay turned out to be 2.669.

`CCCSc1ccc2nc(NC(=O)OC)[nH]c2c1` [Albendazole] yielded a B-score binding assay at human NTCP [1] of 0.993. In addition, on human NTCP [2], the B-score functional assay was -0.13 and the Ranking score was 731.855.

With `C[N+](C)(C)CCCCCC[N+](C)(C)C.O.O.[Br-].[Br-]` [Hexamethonium dibromide dihydrate], the B-score binding assay at human NTCP [1] (setting [3]) is 0.191. On human NTCP [2] (setting [4]), this compound registered a B-score functional assay of -0.02. The compound further yielded a Ranking score on human NTCP [2] (setting [5]) of 696.207.

Turning to `COc1ccc(CN(CCN(C)C)c2ccccn2)cc1` [Pyrilamine maleate], the B-score binding assay at human NTCP [1] (setting [6]) amounted to 0.121. Besides, the Ranking score at human NTCP [2] (setting [7]) is recorded as 458.048. Moreover, the B-score functional assay at human NTCP [2] (setting [8]) was -0.86.

At human NTCP [1] (setting [6]), `CC(C)(C)NC[C@H](O)COc1ccccc1C1CCCC1` [Penbutolol sulfate] returned a B-score binding assay of -1.346. Moreover, at human NTCP [2] (setting [7]), the Ranking score is recorded as 368.646. The B-score functional assay at human NTCP [2] (setting [8]) is reported as 0.103.

Take `CCOC(=O)C1=C[C@]2(CC)CCCN3CCc4c(n1c1ccccc41)[C@@H]32` [Vinpocetine]: the B-score binding assay on human NTCP [1] (setting [6]) was -1.57. The Ranking score on human NTCP [2] (setting [7]) turned out to be 428.448. On human NTCP [2] (setting [8]), this compound yielded a B-score functional assay of 2.672.

On human NTCP [1] (setting [9]), `Cl.NCC(O)c1ccc(O)cc1` (racemic) [(+,-)-Octopamine hydrochloride] returned a B-score binding assay of 0.069. Besides, the B-score functional assay on human NTCP [2] (setting [10]) is on record as 2.044. The Ranking score on human NTCP [2] (setting [11]) amounted to 930.549.

On human NTCP [1] (setting [6]), `COc1ccc(CN2CCNCC2)c(OC)c1OC` [Trimetazidine dihydrochloride] yielded a B-score binding assay of -1.545. The Ranking score at human NTCP [2] (setting [7]) is recorded as 350.668. At human NTCP [2] (setting [8]), this compound returned a B-score functional assay of 0.211.

As for `CCCCC(C)(O)C/C=C/[C@H]1[C@H](O)CC(=O)[C@@H]1CCCCCCC(=O)OC` (mixture of isomers) [Misoprostol], at human NTCP [1] (setting [3]), the B-score binding assay turned out to be 0.662. This compound had a B-score functional assay on human NTCP [2] (setting [4]) of -0.231. At human NTCP [2] (setting [5]), this compound gave a Ranking score of 671.728.

On human NTCP [1] (setting [6]), `CN(C)CCN(Cc1ccc(Cl)cc1)c1ccccn1.Cl` [Chloropyramine hydrochloride] gave a B-score binding assay of 2.853. For the same compound, the Ranking score at human NTCP [2] (setting [7]) is recorded as 387.298. For the same compound, at human NTCP [2] (setting [8]), the B-score functional assay is -2.146.

For the compound `CCn1cc(C(=O)O)c(=O)c2cc3c(cc21)OCO3` [Oxolinic acid], the B-score binding assay on human NTCP [1] (setting [3]) was determined as 1.837. Moreover, at human NTCP [2] (setting [4]), the B-score functional assay is given as -0.139. The compound further displayed a Ranking score on human NTCP [2] (setting [5]) of 776.518.

On human NTCP [1] (setting [6]), `CC1CS(=O)(=O)CCN1/N=C/c1ccc([N+](=O)[O-])o1` (stereo not drawn) [Nifurtimox] returned a B-score binding assay of -0.222. Moreover, the Ranking score at human NTCP [2] (setting [7]) amounted to 381.366. In addition, the B-score functional assay at human NTCP [2] (setting [8]) is given as -0.767.

In turn, `CC(=O)OCC(=O)NCCCOc1cccc(CN2CCCCC2)c1` [Roxatidine Acetate HCl] had a B-score binding assay at human NTCP [1] (setting [6]) of 0.239. Also, on human NTCP [2] (setting [7]), the Ranking score was found to be 297.686. On human NTCP [2] (setting [8]), the B-score functional assay is given as -2.305.

As to `CC(C)c1c(CN(C)C(C)Cc2ccccc2)n(C)n(-c2ccccc2)c1=O` (stereo not drawn) [Famprofazone], the B-score binding assay on human NTCP [1] (setting [6]) is given as -0.284. For the same compound, the Ranking score at human NTCP [2] (setting [7]) worked out at 376.915. Further, at human NTCP [2] (setting [8]), the B-score functional assay was -0.708.

`NC[C@H]1O[C@H](O[C@H]2[C@H](O)[C@@H](O[C@H]3O[C@H](CO)[C@@H](O)[C@H](N)[C@H]3O)[C@H](N)C[C@@H]2N)[C@H](O)[C@@H](O)[C@@H]1O` [Kanamycin A sulfate] came in with a B-score binding assay on human NTCP [1] (setting [3]) of 1.616. Besides, the B-score functional assay on human NTCP [2] (setting [4]) is recorded as -0.456. This compound also returned a Ranking score at human NTCP [2] (setting [5]) of 673.457.

Take `CC(C(O)c1ccc(O)cc1)N1CCC(Cc2ccccc2)CC1.CC(C(O)c1ccc(O)cc1)N1CCC(Cc2ccccc2)CC1.O=C(O)C(O)C(O)C(=O)O` (stereo not drawn) [Ifenprodil tartrate]: the B-score binding assay at human NTCP [1] (setting [3]) was -0.263. On human NTCP [2] (setting [4]), this compound came in with a B-score functional assay of 1.465. Also, on human NTCP [2] (setting [5]), the Ranking score is listed as 727.635.

In turn, `COc1ccccc1N1CCN(CC(O)COc2cccc3ccccc23)CC1.Cl.Cl` (stereo not drawn) [Naftopidil dihydrochloride] yielded a B-score binding assay at human NTCP [1] (setting [6]) of 1.879. Also, at human NTCP [2] (setting [7]), the Ranking score was 412.912. At human NTCP [2] (setting [8]), this compound gave a B-score functional assay of -1.853.

The values are drawn from PMC5681660, “Reduced hepatitis B and D viral entry using clinically applied drugs as novel inhibitors of the bile acid transporter NTCP” (Scientific Reports, 2017).
